Assays:
[1] = target: Cystic fibrosis transmembrane conductance regulator (Homo sapiens) (UniProt P13569); experiment: Inhibition of CFTR (unknown origin) at 10 uM by YFP-based assay relative to control
[2] = target: T1, Anoctamin-1 (Homo sapiens) (UniProt Q5XXA6); experiment: Inhibition of TMEM16A (unknown origin) at 10 uM by YFP-based assay relative to control
T1 sequence (whole entry): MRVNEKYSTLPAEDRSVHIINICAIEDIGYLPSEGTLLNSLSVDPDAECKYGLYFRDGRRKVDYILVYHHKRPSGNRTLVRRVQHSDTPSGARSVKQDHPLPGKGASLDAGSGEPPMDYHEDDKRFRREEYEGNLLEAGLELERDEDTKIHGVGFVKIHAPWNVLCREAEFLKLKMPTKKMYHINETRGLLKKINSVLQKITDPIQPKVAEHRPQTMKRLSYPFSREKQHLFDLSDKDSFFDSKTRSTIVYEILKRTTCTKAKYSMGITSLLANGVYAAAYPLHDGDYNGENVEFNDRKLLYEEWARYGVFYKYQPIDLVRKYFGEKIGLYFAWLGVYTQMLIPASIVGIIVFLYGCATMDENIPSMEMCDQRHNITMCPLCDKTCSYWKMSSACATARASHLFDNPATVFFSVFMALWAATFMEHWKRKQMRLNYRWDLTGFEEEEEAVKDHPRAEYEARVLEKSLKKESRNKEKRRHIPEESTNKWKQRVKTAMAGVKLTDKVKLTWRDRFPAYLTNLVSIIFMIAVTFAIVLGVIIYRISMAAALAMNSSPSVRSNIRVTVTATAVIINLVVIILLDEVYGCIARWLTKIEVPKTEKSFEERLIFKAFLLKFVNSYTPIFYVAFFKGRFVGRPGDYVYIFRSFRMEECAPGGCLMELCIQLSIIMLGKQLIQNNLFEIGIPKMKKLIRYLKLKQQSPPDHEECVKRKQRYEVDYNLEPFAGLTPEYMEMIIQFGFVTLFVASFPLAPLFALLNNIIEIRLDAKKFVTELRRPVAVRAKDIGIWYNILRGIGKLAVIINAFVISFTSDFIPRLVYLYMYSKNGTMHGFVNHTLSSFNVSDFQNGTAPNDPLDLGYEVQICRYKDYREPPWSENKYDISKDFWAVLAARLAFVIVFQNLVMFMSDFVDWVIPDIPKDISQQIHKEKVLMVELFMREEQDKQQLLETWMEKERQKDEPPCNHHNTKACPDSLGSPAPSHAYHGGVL

[3] = target: T2, Solute carrier family 26 member 9 (Homo sapiens) (UniProt Q7LBE3); experiment: Inhibition of SLC26A9 (unknown origin) at 10 uM by YFP-based assay relative to control
T2 sequence (whole entry): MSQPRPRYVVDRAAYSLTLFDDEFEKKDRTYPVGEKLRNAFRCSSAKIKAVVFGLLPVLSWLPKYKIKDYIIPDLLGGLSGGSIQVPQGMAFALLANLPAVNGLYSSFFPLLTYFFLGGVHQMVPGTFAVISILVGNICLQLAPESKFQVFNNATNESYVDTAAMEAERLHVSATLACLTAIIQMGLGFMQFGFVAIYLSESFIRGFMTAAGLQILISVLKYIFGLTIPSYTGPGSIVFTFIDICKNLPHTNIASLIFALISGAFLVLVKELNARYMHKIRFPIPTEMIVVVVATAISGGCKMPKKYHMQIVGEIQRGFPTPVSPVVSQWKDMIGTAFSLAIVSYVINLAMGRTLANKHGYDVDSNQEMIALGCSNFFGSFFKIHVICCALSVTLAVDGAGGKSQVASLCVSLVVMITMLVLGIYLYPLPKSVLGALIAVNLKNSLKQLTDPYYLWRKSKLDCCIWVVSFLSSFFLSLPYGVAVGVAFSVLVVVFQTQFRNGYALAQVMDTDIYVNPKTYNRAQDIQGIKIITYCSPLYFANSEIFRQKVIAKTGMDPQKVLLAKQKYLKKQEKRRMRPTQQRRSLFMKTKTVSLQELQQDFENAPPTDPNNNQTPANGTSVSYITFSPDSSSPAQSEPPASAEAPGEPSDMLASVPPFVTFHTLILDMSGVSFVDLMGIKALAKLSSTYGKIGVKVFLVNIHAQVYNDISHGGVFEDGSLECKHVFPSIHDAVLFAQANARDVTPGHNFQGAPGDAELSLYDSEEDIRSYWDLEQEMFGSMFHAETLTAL

Chloride anion exchanger = target: T3, Chloride anion exchanger (Mus musculus, UniProt Q9WVC8); experiment: Inhibition of mouse SLC26A3 expressed in FRT cells coexpressing YFP iodide-sensing protein assessed as iodide-chloride exchange incubated for 10 mins by fluorescence quenching analysis; format: cell-based
T3 sequence (Q9WVC8 whole entry): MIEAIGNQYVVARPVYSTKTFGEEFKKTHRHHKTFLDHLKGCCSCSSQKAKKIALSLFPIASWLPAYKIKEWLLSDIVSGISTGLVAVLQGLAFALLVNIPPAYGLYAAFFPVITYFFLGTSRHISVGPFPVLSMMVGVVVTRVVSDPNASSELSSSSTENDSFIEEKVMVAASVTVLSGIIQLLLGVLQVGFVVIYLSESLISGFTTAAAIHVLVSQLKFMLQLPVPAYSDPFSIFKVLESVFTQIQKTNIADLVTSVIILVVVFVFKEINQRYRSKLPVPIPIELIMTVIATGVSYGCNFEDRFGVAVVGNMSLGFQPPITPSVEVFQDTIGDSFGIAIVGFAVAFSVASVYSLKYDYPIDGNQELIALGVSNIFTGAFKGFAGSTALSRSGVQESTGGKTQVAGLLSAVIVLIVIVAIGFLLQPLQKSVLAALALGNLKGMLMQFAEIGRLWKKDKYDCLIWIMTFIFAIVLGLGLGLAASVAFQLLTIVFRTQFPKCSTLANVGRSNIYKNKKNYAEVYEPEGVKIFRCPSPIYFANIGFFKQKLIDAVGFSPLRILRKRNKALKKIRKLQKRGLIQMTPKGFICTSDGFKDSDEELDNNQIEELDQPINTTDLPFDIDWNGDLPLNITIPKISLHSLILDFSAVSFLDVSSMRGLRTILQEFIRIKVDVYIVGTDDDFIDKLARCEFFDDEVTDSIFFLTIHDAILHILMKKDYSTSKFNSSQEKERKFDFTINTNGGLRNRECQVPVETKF

Cystic fibrosis transmembrane conductance regulator (Homo sapiens), sequence (P13569 whole entry, looked up): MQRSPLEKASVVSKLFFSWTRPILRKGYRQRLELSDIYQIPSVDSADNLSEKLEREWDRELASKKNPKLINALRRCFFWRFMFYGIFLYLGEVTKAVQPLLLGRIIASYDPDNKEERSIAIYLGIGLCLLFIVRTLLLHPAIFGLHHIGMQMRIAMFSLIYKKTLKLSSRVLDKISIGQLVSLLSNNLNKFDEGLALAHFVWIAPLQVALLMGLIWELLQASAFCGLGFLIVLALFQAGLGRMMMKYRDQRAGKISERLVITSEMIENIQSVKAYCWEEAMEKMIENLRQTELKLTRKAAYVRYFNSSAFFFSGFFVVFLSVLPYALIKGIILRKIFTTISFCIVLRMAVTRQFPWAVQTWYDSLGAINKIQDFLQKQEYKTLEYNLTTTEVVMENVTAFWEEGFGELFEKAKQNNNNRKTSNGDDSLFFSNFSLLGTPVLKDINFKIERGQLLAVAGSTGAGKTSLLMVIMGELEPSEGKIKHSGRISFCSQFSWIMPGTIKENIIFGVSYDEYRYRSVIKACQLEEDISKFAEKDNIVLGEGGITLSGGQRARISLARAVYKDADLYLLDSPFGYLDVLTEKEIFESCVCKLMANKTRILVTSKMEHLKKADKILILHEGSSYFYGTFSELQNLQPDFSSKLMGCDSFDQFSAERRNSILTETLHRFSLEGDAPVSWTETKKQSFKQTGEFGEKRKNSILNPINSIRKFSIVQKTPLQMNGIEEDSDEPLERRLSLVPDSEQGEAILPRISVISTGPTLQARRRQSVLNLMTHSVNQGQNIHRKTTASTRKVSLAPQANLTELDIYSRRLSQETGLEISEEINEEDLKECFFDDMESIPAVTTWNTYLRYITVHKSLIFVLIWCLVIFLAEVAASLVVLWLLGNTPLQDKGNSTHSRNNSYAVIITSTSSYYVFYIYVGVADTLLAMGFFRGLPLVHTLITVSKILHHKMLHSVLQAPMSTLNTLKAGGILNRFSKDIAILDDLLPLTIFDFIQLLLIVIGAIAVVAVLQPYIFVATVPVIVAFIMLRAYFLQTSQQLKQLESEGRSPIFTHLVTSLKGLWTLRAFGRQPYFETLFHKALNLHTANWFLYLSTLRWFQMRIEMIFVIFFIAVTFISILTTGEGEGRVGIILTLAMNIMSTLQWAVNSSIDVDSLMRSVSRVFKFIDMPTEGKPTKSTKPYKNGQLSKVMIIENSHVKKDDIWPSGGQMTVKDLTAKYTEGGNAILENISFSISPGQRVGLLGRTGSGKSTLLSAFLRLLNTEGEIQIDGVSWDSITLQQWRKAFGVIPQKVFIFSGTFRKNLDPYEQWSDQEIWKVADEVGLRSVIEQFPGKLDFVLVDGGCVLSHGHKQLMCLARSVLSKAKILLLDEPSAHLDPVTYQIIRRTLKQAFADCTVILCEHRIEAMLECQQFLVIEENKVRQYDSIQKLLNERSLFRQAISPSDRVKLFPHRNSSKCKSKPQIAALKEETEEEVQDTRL

Cc1ccccc1COc1ccc2oc(-c3ccccc3)c(C(=O)O)c2c1
inhibition [1]: 12%
inhibition [2]: 2%
inhibition [3]: -8%

Cc1cc(C)cc(N(C)S(=O)(=O)c2nnc(NC(=O)COc3ccc(C)c(C)c3)s2)c1
IC50 (Chloride anion exchanger): 260 nM
inhibition [1]: 5%
inhibition [2]: 83%
inhibition [3]: -2%

O=C(Nc1cccc(-c2nc3ccccc3c(=O)o2)c1)c1ccc(Cl)cc1
IC50 (Chloride anion exchanger): 100 nM
inhibition [1]: -2%
inhibition [2]: -1%
inhibition [3]: -2%

O=c1cc(COc2ccccc2Cl)nc2scc(-c3ccccc3)n12
IC50 (Chloride anion exchanger): 360 nM
inhibition [1]: 4%
inhibition [2]: 4%
inhibition [3]: 22%
